Results from US9926281B2 (priority 2014, dated 2018).
pIC50: −log10 of the molar value.

Legend:
[1] = molecular target: rnADAMTS-5 (1-564-6H) (Rattus norvegicus, UniProt Q6TY19); settings: read-out: Rat ADAMTS-5 potency IC50
[2] = molecular target: human ADAMTS-5 (Homo sapiens (Human), UniProt Q9UNA0); settings: read-out: hADAMTS-5 potency IC50
Experimental: Finally, the fluorescence is read on the Envision (Perkin Elmer) after an incubation of 90 min at 37° C.

[3] = molecular target: human TACE (Homo sapiens (Human), UniProt P78536); settings: read-out: TACE potency IC50
[4] = molecular target: human MMP13 (Homo sapiens (Human), UniProt P45452); settings: read-out: hMMP-13 potency IC50
Experimental: Human MMP13 is preactivated by incubated the enzyme in the same buffer complemented with 1 mM freshly prepared p-Aminophenylmercuric acetate (AMPA) for 1 hour at 37° C.

Chain of human TACE (P78536 whole entry, looked up, change not shown): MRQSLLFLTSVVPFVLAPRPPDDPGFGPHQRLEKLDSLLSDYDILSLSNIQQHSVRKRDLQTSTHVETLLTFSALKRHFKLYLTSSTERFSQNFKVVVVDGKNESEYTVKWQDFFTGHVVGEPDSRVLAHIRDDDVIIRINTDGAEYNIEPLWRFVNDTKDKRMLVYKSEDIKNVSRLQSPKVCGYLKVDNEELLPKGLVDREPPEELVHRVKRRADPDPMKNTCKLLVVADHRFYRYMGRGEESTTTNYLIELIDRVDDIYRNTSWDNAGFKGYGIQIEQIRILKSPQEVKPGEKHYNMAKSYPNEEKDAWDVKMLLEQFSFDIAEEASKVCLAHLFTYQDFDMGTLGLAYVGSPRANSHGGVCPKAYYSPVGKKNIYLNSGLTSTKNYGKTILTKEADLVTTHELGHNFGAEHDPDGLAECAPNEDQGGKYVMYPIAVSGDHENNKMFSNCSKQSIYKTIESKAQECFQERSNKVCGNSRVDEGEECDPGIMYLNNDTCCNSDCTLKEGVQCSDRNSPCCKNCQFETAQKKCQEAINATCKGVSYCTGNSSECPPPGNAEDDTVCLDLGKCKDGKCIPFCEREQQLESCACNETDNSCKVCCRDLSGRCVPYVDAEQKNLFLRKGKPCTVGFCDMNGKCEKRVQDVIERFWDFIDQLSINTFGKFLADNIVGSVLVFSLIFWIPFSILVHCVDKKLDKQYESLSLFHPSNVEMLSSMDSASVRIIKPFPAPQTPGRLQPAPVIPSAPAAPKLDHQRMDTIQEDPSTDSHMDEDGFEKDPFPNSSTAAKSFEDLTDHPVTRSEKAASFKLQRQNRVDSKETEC
Chain of human ADAMTS-5 (Q9UNA0 262-930): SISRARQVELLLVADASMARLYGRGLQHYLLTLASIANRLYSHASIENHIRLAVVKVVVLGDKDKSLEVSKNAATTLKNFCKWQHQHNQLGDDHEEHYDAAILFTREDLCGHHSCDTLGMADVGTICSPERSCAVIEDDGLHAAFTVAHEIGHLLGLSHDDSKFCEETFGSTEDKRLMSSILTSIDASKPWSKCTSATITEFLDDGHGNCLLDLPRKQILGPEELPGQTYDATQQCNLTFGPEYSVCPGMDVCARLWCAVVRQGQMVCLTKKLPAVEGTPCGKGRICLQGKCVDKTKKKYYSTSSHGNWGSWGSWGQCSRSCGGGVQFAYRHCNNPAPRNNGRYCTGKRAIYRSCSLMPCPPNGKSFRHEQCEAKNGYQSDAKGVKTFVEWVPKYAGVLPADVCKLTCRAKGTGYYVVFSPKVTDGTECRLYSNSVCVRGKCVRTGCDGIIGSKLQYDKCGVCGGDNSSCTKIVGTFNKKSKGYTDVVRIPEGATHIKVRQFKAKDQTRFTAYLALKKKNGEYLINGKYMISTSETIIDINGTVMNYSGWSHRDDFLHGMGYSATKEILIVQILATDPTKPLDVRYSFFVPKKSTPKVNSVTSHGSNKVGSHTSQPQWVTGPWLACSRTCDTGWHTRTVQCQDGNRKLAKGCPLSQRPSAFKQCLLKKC

Row | Compound | pIC50 [1] | pIC50 [2] | pIC50 [3] | pIC50 [4]
1 | C[C@@H](C[C@@]1(C)NC(=O)NC1=O)C(=O)N1CCN(c2ccc(F)c(Cl)c2)[C@@H](C)C1 [Cpd 265] | 7.66 | 7.74 | < 5.40 | –
2 | O=C1NC(=O)C(CCC(=O)N2CCN(c3cccc(Cl)c3)CC2)(C2CC2)N1 (stereo not drawn) [compound 34, 5-[3-[4-(3-chlorophenyl)piperazin-1-yl]-3-oxo-propyl]-5-cyclopropyl-imidazolidine-2,4-dione] | 7.39 | – | < 5.40 | 5.49
3 | CC(C)C1(CCC(=O)N2CCN(c3cccc(Cl)c3)CC2)NC(=O)NC1=O (stereo not drawn) [compound 53, 5-[3-[4-(3-chlorophenyl)piperazin-1-yl]-3-oxo-propyl]-5-isopropyl-imidazolidine-2,4-dione] | 6.75 | – | < 5.40 | < 4.70
4 | Cc1ccc(Cl)cc1N1CCN(C(=O)CCC2(c3ccc(Cl)cc3)NC(=O)NC2=O)CC1 (stereo not drawn) [compound 75, 5-[3-[4-(5-chloro-2-methyl-phenyl)piperazin-1-yl]-3-oxo-propyl]-5-(4-chlorophenyl)imidazolidine-2,4-dione] | 6.85 | – | 6.26 | < 4.70
5 | Cc1c(Cl)cccc1N1CCN(C(=O)CCC2(C3CC3)NC(=O)NC2=O)CC1 (stereo not drawn) [compound 98, 5-[3-[4-(3-chloro-2-methyl-phenyl)piperazin-1-yl]-3-oxo-propyl]-5-cyclopropyl-imidazolidine-2,4-dione] | 7.09 | – | < 5.40 | < 4.70
6 | Cc1c(F)cccc1N1CCN(C(=O)CCC2(C3CC3)NC(=O)NC2=O)CC1 (stereo not drawn) [compound 99, 5-cyclopropyl-5-[3-[4-(3-fluoro-2-methyl-phenyl)piperazin-1-yl]-3-oxo-propyl]imidazolidine-2,4-dione] | 6.94 | – | < 4.83 | < 4.70
7 | Cc1c(Cl)cccc1N1CCN(C(=O)CCC2(c3cccnc3)NC(=O)NC2=O)CC1 (stereo not drawn) [compound 102, 5-[3-[4-(3-chloro-2-methyl-phenyl)piperazin-1-yl]-3-oxo-propyl]-5-(3-pyridyl)imidazolidine-2,4-dione] | 7.03 | – | 5.47 | < 4.70
8 | O=C1NC(=O)C(CCC(=O)N2CCN(c3cccc(F)c3)CC2)(c2cccnc2)N1 (stereo not drawn) [compound 112, 5-[3-[4-(3-fluorophenyl)piperazin-1-yl]-3-oxo-propyl]-5-(3-pyridyl)imidazolidine-2,4-dione] | 7.41 | – | < 5.40 | 5.73
9 | O=C1NC(=O)C(CCC(=O)N2CCN(c3cccc(F)c3)CC2)(C2CC2)N1 (stereo not drawn) [compound 115, 5-cyclopropyl-5-[3-[4-(3-fluorophenyl)piperazin-1-yl]-3-oxo-propyl]imidazolidine-2,4-dione] | 7.42 | – | < 4.70 | < 5.40
10 | Cc1ccc(F)cc1N1CCN(C(=O)CCC2(C3CC3)NC(=O)NC2=O)CC1 (stereo not drawn) [compound 116, 5-cyclopropyl-5-[3-[4-(5-fluoro-2-methyl-phenyl)piperazin-1-yl]-3-oxo-propyl]imidazolidine-2,4-dione] | 7.54 | – | < 5.33 | < 4.70
11 | CS(=O)(=O)c1ccc(C2(CCC(=O)N3CCN(c4cccc(Cl)c4)CC3)NC(=O)NC2=O)cc1 (stereo not drawn) [compound 124, 5-[3-[4-(3-chlorophenyl)piperazin-1-yl]-3-oxo-propyl]-5-(4-methylsulfonylphenyl)imidazolidine-2,4-dione] | 7.43 | – | 6.06 | 5.89
12 | C[C@H]1CN(C(=O)CCC2(C3CC3)NC(=O)NC2=O)CCN1c1ccccc1 (stereo partly drawn) [compound 135, 5-cyclopropyl-5-[3-[(3S)-3-methyl-4-phenyl-piperazin-1-yl]-3-oxo-propyl]imidazolidine-2,4-dione] | 6.90 | – | < 4.70 | < 4.70
13 | C[C@H]1CN(C(=O)CCC2(c3cccnc3)NC(=O)NC2=O)CCN1c1ccccc1 (stereo partly drawn) [compound 136, 5-[3-[(3S)-3-methyl-4-phenyl-piperazin-1-yl]-3-oxo-propyl]-5-(3-pyridyl)imidazolidine-2,4-dione] | 6.62 | – | < 4.70 | < 4.70
14 | Cc1c(Cl)cc(Cl)cc1N1CCN(C(=O)CCC2(C)NC(=O)NC2=O)C[C@@H]1C (stereo partly drawn) [compound 178, 5-[3-[(3S)-4-(3,5-dichloro-2-methyl-phenyl)-3-methyl-piperazin-1-yl]-3-oxo-propyl]-5-methyl-imidazolidine-2,4-dione] | 6.46 | 6.24 | – | –
15 | O=C1NC(=O)C(CCC(=O)N2CCN(c3cccc(Cl)c3)CC2)(CNCc2ccccc2)N1 (stereo not drawn) [compound 184, 5-[(benzylamino)methyl]-5-[3-[4-(3-chlorophenyl)piperazin-1-yl]-3-oxo-propyl]imidazolidine-2,4-dione] | 6.55 | 6.57 | – | –
16 | N#Cc1cccc(N2CCN(C(=O)CCC3(C4CC4)NC(=O)NC3=O)CC2)c1 (stereo not drawn) [compound 195, 3-[4-[3-(4-cyclopropyl-2,5-dioxo-imidazolidin-4-yl)propanoyl]piperazin-1-yl]benzonitrile] | 6.58 | 6.50 | – | –
17 | COC(CC1(C)NC(=O)NC1=O)C(=O)N1CCN(c2cccc(F)c2)[C@@H](C)C1 (stereo partly drawn) [compound 294, 5-[3-[(3S)-4-(3-fluorophenyl)-3-methyl-piperazin-1-yl]-2-methoxy-3-oxo-propyl]-5-methyl-imidazolidine-2,4-dione] | 6.89 | 6.87 | < 4.70 | –
18 | CC(CC1(C)NC(=O)NC1=O)C(=O)N1CCN(c2cc(Cl)cc(Cl)c2)[C@@H](C)C1 (stereo partly drawn) [compound 420, 5-(3-((S)-4-(3,5-dichlorophenyl)-3-methylpiperazin-1-yl)-2-methyl-3-oxopropyl)-5-methylimidazolidine-2,4-dione] | – | 7.49 | 5.53 | < 4.85
19 | CC(CC1(C)NC(=O)NC1=O)C(=O)N1CCN(c2ccc(F)c(Cl)c2)[C@@H](C)C1 (stereo partly drawn) [compound 422, 5-(3-((S)-4-(3-chloro-4-fluorophenyl)-3-methylpiperazin-1-yl)-2-methyl-3-oxopropyl)-5-methylimidazolidine-2,4-dione] | – | 7.68 | < 5.40 | 5.63
20 | Cc1c(Cl)cc(Cl)cc1N1CCN(C(=O)C(C)CC2(C)NC(=O)NC2=O)C[C@@H]1C (stereo partly drawn) [compound 423, 5-(3-((S)-4-(3,5-dichloro-2-methylphenyl)-3-methylpiperazin-1-yl)-2-methyl-3-oxopropyl)-5-methylimidazolidine-2,4-dione] | – | 7.24 | 5.83 | < 4.70
21 | CC1(CC(COCc2ccccc2)C(=O)N2CCN(c3cc(Cl)cc(Cl)c3)CC2)NC(=O)NC1=O (stereo not drawn) [compound 424, 5-(2-(benzyloxymethyl)-3-(4-(3,5-dichlorophenyl)piperazin-1-yl)-3-oxopropyl)-5-methylimidazolidine-2,4-dione] | – | 7.28 | < 4.97 | < 4.70
22 | CC1(CC(CO)C(=O)N2CCN(c3cc(Cl)cc(Cl)c3)CC2)NC(=O)NC1=O (stereo not drawn) [compound 425, 5-(3-(4-(3,5-dichlorophenyl)piperazin-1-yl)-2-(hydroxymethyl)-3-oxopropyl)-5-methylimidazolidine-2,4-dione] | – | 7.74 | 6.61 | < 5.40
23 | COCC1(CC(C)C(=O)N2CCN(c3cc(Cl)cc(Cl)c3)CC2)NC(=O)NC1=O (stereo not drawn) [compound 427, 5-(3-(4-(3,5-dichlorophenyl)piperazin-1-yl)-2-methyl-3-oxopropyl)-5-(methoxymethyl)imidazolidine-2,4-dione] | – | 7.70 | 6.47 | < 5.40
24 | COCC1(CC(C)C(=O)N2CCN(c3cc(Cl)cc(Cl)c3)[C@@H](C)C2)NC(=O)NC1=O (stereo partly drawn) [compound 429, 5-(3-((S)-4-(3,5-dichlorophenyl)-3-methylpiperazin-1-yl)-2-methyl-3-oxopropyl)-5-(methoxymethyl)imidazolidine-2,4-dione] | – | 7.28 | < 5.40 | < 4.70
25 | COCC1(CC(C)C(=O)N2CCN(c3cccc(Cl)c3C)CC2)NC(=O)NC1=O (stereo not drawn) [compound 433, 5-(3-(4-(3-chloro-2-methylphenyl)piperazin-1-yl)-2-methyl-3-oxopropyl)-5-(methoxymethyl)imidazolidine-2,4-dione] | – | 7.68 | 5.90 | < 4.70
26 | CC(CC1(c2ccccn2)NC(=O)NC1=O)C(=O)N1CCN(c2cc(Cl)cc(Cl)c2)CC1 (stereo not drawn) [compound 434, 5-(3-(4-(3,5-dichlorophenyl)piperazin-1-yl)-2-methyl-3-oxopropyl)-5-(pyridin-2-yl)imidazolidine-2,4-dione] | – | 7.70 | 6.97 | 6.12
27 | CCC(CC1(C)NC(=O)NC1=O)C(=O)N1CCN(c2cc(Cl)cc(Cl)c2)CC1 (stereo not drawn) [compound 435, 5-(2-(4-(3,5-dichlorophenyl)piperazine-1-carbonyl)butyl)-5-methylimidazolidine-2,4-dione] | – | 7.82 | 6.65 | 5.91
28 | COCC(CC1(C)NC(=O)NC1=O)C(=O)N1CCN(c2cc(Cl)cc(Cl)c2)CC1 (stereo not drawn) [compound 436, 5-(3-(4-(3,5-dichlorophenyl)piperazin-1-yl)-2-(methoxymethyl)-3-oxopropyl)-5-methylimidazolidine-2,4-dione] | – | 7.66 | 6.43 | < 5.40
29 | CC(C)C(CC1(C)NC(=O)NC1=O)C(=O)N1CCN(c2cc(Cl)cc(Cl)c2)CC1 (stereo not drawn) [compound 438, 5-(2-(4-(3,5-dichlorophenyl)piperazine-1-carbonyl)-3-methylbutyl)-5-methylimidazolidine-2,4-dione] | – | 7.25 | 5.89 | 5.73
30 | COC(CC1(C)NC(=O)NC1=O)C(=O)N1CCN(c2cc(Cl)cc(Cl)c2)CC1 (stereo not drawn) [compound 439, 5-(3-(4-(3,5-dichlorophenyl)piperazin-1-yl)-2-methoxy-3-oxopropyl)-5-methylimidazolidine-2,4-dione] | – | 7.37 | 6.10 | < 5.40
